Blank lines part the entries; values can stand above or below the molecule they belong to.
Columns and labels:
Assay type in all cases: biochemical
succinylated elastin = assay: Protease assay using succinylated elastin substrate with TNBSA detection; conditions: 37° C., 1 hour; for corrected absorbance at 450 nm, substrate Elastin: 100 μg succinylated elastin
Method: (§1) Assay Conditions. Elastase assay using succinylated elastin: A modified version of the method described in the Pierce Quanticleave™ protease assay kit II (Pierce Chemical Co.) was used for the elastase assay. The assay contained 100 μg of succinylated substrate (gelatin, elastin, or casein) and 50 μl of enzyme sample to be assayed, and the reaction was brought up to a final volume of 150 μl with BupH buffer or 50 mM sodium borate, pH 8.0 (50 mM sodium borate, pH 8.0, is a suitable substitute for BupH buffer). All reactions were prepared in 96-well Falcon 3097 flat-bottom microtiter plates (Beckton Dickinson, N.J.) The reactions were then incubated at 37° C. for 60 min. Fifty microliters of a 0.03% solution of TNBSA was then added to each reaction and left for 20 min at room temperature. The optical density of each reaction was then determined using a Bio-Whittaker microplate reader 2001 (Bio-Whittaker, Walkersville, Md.) at 450 nm. Blank reactions were also prepared which contained buffer and protease, buffer and substrate and buffer only. All sample dilutions were prepared in BupH buffer or 50 mM sodium borate buffer, pH 8.0, as were stock solutions of 1 mg/ml elastase and trypsin.
(§2) Comparison of Elastase and Trypsin Substrate Affinities. […] and 1 μg/ml of elastase and trypsin were assayed using succinylated elastin, gelatin, and casein substrate. Enzyme dilutions were prepared from a 1 mg/ml stock of trypsin and elastase in BupH buffer or 50 mM sodium borate, pH 8.0. Assays contained 50 μl enzyme and 100 μg succinylated substrate and were made up to a volume of 150 μl with BupH buffer or 50 mM sodium borate buffer, pH 8.0. Digests were incubated at 37° C. for 1 hour. All digests were prepared in duplicate and optical densities were measured at 450 nm. Blank reaction contained buffer/enzyme. Blank reading was subtracted from the final reaction optical density to give corrected absorbance values. Standard deviations are given in parentheses. The activity of elastase varies with substrate in the following order: elastin>casein>gelatin. The activity of trypsin varies with substrate in the following order: gelatin>casein>elastin. Substrate affinity was evaluated by the level of absorbance at 450 nm each protease generated with each substrate.
(§3) Comparison of Succinyl Elastin with SANA. The sensitivity of the succinylated elastin assay was compared to an elastase assay that uses SANA, a synthetic elastase substrate. 50 μl of 1000, 100, 10 and 1 ng/ml elastase was used to digest 100 μg of succinylated elastin and 12 μl of 12 mM SANA. The succinylated elastin digest was carried out at 37° C. for 1 hour. The SANA elastase assay was carried out at room temperature for 20 minutes. Optical densities were measured at 450 nm for succinylated elastin assay and 405 nm for SANA elastase assay. Blank reaction contained buffer/enzyme. Blank reading was subtracted from the final reaction optical density to give corrected absorbance values. Standard deviations are given in parentheses.

succinylated casein = assay: Protease assay using succinylated casein substrate with TNBSA detection; conditions: 100 μg succinylated casein, 37° C., 1 hour
Method: as §1, §2

succinylated gelatin = assay: Protease assay using succinylated gelatin substrate with TNBSA detection; conditions: 100 μg succinylated gelatin, 37° C., 1 hour
Method: as §1, §2

[1] = Elastase assay using Suc(Ala)3-nA (SANA); conditions: room temperature, 20 minutes
Method: Elastase assay using Suc(Ala)3-nA (SANA). The following method was used for testing PPE (CalBio-chem) activity. A 25 mM stock solution of SANA (Sigma) in dimethyl sulfoxide (Sigma), 1 mg/ml stock solution of elastase in distilled water, and 0.2 M Tris buffer pH 8.0 with 0.1% Triton X-100(Sigma) was prepared. The assay contained 12 μl of SANA and 50 μl of the enzyme sample and was made up to 200 μl with 0.2 M Tris buffer. All reactions were prepared in 96-well Falcon 3097 flat-bottom microtiter plates (Beckton Dickinson) and carried out at room temperature. The optical density of each digest was recorded for 20 min, at 30 second intervals, at 405 nm using a Bio-Whittaker microplate reader 2001 (Bio-Whittaker).
as §3

- corrected optical density at 405 nm, SANA ([1]; elastase 1 ng/ml): 0
- corrected optical density at 405 nm, SANA ([1]; elastase 10 ng/ml): 0
- corrected optical density at 405 nm, SANA ([1]; elastase 100 ng/ml): 0.011 (±0.004)
- corrected optical density at 405 nm, SANA ([1]; elastase 1000 ng/ml): 0.129 (±0.026)
Molecule: Elastase: Porcine pancreatic elastase (PPE; 297 units/mg) (EC 3.4.21.36) purchased from CalBiochem
- corrected optical density at 450 nm, Succinylated Elastin (succinylated elastin; elastase 1 ng/ml): 0.0086 (±0.003)
- corrected optical density at 450 nm, Succinylated Elastin (succinylated elastin; elastase 10 ng/ml): 0.01 (±0.001)
- corrected optical density at 450 nm, Succinylated Elastin (succinylated elastin; elastase 100 ng/ml): 0.015 (±0.004)
- corrected optical density at 450 nm, Succinylated Elastin (succinylated elastin; elastase 1000 ng/ml): 0.054 (±0.006)
- corrected absorbance at 450 nm, substrate Elastin (succinylated elastin; protease concentration 1): 0.085
- corrected absorbance at 450 nm, substrate Elastin (succinylated elastin; protease concentration 10): 0.377
- corrected absorbance at 450 nm, substrate Casein (succinylated casein; protease concentration 1): 0.071
- corrected absorbance at 450 nm, substrate Casein (succinylated casein; protease concentration 10): 0.28
- corrected absorbance at 450 nm, substrate Gelatin (succinylated gelatin; protease concentration 1): 0.037
- corrected absorbance at 450 nm, substrate Gelatin (succinylated gelatin; protease concentration 10): 0.120

B1: Trypsin: Protease from the Pierce Quanticleave protease assay kit II (13564 units/mg) (protein, UniProt P00760 24-246, looked up)
Serine protease 1: IVGGYTCGANTVPYQVSLNSGYHFCGGSLINSQWVVSAAHCYKSGIQVRLGEDNINVVEGNEQFISASKSIVHPSYNSNTLNNDIMLIKLKSAASLNSRVASISLPTSCASAGTQCLISGWGNTKSSGTSYPDVLKCLKAPILSDSSCKSAYPGQITSNMFCAGYLEGGKDSCQGDSGGPVVCSGKLQGIVSWGSGCAQKNKPGVYTKVCNYVSWIKQTIASN
- corrected absorbance at 450 nm, substrate Elastin (succinylated elastin; protease concentration 1): 0.024
- corrected absorbance at 450 nm, substrate Elastin (succinylated elastin; protease concentration 10): 0.049
- corrected absorbance at 450 nm, substrate Casein (succinylated casein; protease concentration 1): 0.106
- corrected absorbance at 450 nm, substrate Casein (succinylated casein; protease concentration 10): 0.158
- corrected absorbance at 450 nm, substrate Gelatin (succinylated gelatin; protease concentration 1): 0.179
- corrected absorbance at 450 nm, substrate Gelatin (succinylated gelatin; protease concentration 10): 0.354
